This test addresses bovine xanthine oxidase (BXO) (Bos taurus, UniProt P80457). Put plainly: XO inhibitory assay, double enzyme detection. The format is biochemical. As to conditions: read-out: IC50 of moderately active compounds, moderate activities (Fig. 6).

This passage reports IC50 results from publication PMC11004395 (Saudi Pharmaceutical Journal : SPJ, 2024).

As usually defined, the IC50 is the concentration at which inhibition is half-maximal.

Molecules are shown by their SMILES. Bounds are passed on as bounds.

Sequence of bovine xanthine oxidase (BXO) (P80457 whole entry): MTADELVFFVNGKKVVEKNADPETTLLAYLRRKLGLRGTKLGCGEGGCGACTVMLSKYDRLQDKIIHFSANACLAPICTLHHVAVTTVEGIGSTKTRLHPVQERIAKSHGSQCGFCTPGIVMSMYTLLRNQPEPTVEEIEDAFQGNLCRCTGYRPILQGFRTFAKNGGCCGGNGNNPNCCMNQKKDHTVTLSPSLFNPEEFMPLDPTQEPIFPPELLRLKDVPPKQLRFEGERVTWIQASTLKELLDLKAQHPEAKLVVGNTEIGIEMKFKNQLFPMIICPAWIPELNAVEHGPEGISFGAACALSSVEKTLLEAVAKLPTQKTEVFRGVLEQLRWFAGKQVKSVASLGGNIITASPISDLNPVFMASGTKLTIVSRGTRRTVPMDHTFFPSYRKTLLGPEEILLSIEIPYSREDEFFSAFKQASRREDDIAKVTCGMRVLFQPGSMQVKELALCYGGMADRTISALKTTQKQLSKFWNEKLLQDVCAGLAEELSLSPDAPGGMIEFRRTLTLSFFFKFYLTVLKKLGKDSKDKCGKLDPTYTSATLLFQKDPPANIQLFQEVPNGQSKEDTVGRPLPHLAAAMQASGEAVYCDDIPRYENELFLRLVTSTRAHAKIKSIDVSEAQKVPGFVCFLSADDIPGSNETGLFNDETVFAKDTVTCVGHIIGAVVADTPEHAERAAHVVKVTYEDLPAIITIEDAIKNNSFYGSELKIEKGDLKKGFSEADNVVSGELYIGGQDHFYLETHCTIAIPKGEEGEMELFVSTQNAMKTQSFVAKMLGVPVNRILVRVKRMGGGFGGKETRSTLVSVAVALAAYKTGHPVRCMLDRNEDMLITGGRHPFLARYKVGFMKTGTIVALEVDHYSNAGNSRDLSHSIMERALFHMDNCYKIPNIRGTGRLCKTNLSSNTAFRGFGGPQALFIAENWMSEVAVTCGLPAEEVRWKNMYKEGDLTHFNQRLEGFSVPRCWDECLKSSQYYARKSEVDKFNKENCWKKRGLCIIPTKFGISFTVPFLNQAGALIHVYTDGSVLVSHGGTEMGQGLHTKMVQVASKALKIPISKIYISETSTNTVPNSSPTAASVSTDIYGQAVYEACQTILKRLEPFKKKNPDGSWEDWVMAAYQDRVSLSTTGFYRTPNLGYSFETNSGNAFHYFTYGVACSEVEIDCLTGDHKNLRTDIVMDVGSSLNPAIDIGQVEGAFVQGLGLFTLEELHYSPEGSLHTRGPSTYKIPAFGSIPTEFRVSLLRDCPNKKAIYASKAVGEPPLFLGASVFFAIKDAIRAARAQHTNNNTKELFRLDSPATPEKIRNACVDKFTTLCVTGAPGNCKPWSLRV

For `O=[N+]([O-])c1ccc(C=Nn2c(Cn3nnc4ccccc43)n[nH]c2=S)cc1` [Compound 8, 3-((1H-Benzo[d][1,2,3]triazol-1-yl)methyl)-4-((4-nitrobenzylidene)amino)-1H-1,2,4-triazole-5(4H)-thione], the IC50 is at most 263 µM.
